Assay results: patent US7943770B2, “Fused quinoline derivative and use thereof” (Takeda Pharmaceutical Company Limited, priority 2004, dated 2011)

Target: T1, hNK2 receptor (Homo sapiens, UniProt P21452)
T1 construct: host or cells: CHO cells
T1 sequence (P21452 1-398): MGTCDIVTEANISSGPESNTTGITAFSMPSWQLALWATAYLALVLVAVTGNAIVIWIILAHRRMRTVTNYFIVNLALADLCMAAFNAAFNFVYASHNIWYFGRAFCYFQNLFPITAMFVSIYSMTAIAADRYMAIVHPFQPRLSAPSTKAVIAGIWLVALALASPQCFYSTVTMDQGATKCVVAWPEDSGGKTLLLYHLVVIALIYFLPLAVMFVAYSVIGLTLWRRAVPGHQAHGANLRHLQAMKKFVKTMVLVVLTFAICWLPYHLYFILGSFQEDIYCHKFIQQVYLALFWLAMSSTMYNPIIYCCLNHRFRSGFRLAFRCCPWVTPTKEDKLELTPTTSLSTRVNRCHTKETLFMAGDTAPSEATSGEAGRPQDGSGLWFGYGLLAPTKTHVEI
Assay: Radio-ligand ([125I]-NKA) receptor binding inhibitory activity using membrane fraction of hNK2 receptor-expressing CHO cell
Conditions: membrane fraction of hNK2 receptor-expressing CHO cells, 25° C., 30 min
How it was run: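 Membranes from hNK2-expressing CHO cells (20 μg/mL suspension) incubated with test compound and [125I]-NKA ([…] solution as added) in Tris-HCl pH 7.4 with BSA, protease inhibitors, 3 mM MnCl2, 25 °C, 30 min. Bound radioactivity by GF/C filtration and scintillation; inhibition expressed relative to specific binding (total minus unlabeled-NKA non-specific).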

IC50 [nM] | Compound
< 1 | COC[C@@H]1Nc2ccccc2[C@H]2[C@@H]1CCN2C(=O)[C@H]1CCCC[C@H]1NC(=O)Nc1ccc(OC)c(C#N)c1 [Example 285, N-(3-Cyano-4-methoxyphenyl)-N′-((1R,2S)-2-{[(3aR,4R,9bR)-4-(methoxymethyl)-2,3,3a,4,5,9b-hexahydro-1H-pyrrolo[3,2-c]quinolin-1-yl]carbonyl}cyclohexyl)urea]
< 10 | COC[C@@H]1Nc2ccccc2[C@H]2[C@@H]1CCN2C(=O)[C@H]1CCCC[C@H]1NC(=O)c1ccc(N2CCOCC2)nc1 [Example 286, N-((1R,2S)-2-{[(3aR,4R,9bR)-4-(Methoxymethyl)-2,3,3a,4,5,9b-hexahydro-1H-pyrrolo[3,2-c]quinolin-1-yl]carbonyl}cyclohexyl)-6-morpholin-4-ylnicotinamide]
< 10 | COC[C@@H]1Nc2ccccc2[C@H]2[C@@H]1CCN2C(=O)[C@H]1CCCC[C@H]1NC(=O)c1ccc(-n2ccnc2C)nc1 [Example 287, N-((1R,2S)-2-{[(3aR,4R,9bR)-4-(Methoxymethyl)-2,3,3a,4,5,9b-hexahydro-1H-pyrrolo[3,2-c]quinolin-1-yl]carbonyl}cyclohexyl)-6-(2-methyl-1H-imidazol-1-yl)nicotinamide]
< 1 | COC[C@@H]1Nc2ccccc2[C@H]2[C@@H]1CCN2C(=O)[C@H]1CCCC[C@H]1NC(=O)c1ccc(-n2cccn2)nc1 [Example 288, N-((1R,2S)-2-{[(3aR,4R,9bR)-4-(Methoxymethyl)-2,3,3a,4,5,9b-hexahydro-1H-pyrrolo[3,2-c]quinolin-1-yl]carbonyl}cyclohexyl)-6-(1H-pyrazol-1-yl)nicotinamide]
< 10 | COC[C@@H]1Nc2ccccc2[C@H]2[C@@H]1CCN2C(=O)[C@H]1CCCC[C@H]1NC(=O)Nc1ccc(N2CCOCC2)nc1 [Example 289, N-((1R,2S)-2-{[(3aR,4R,9bR)-4-(Methoxymethyl)-2,3,3a,4,5,9b-hexahydro-1H-pyrrolo[3,2-c]quinolin-1-yl]carbonyl}cyclohexyl)-N′-(6-morpholin-4-ylpyridin-3-yl)urea]
< 1 | COC[C@@H]1Nc2ccccc2[C@H]2[C@@H]1CCN2C(=O)[C@H]1CCCC[C@H]1NC(=O)c1ccc(-c2cnco2)cc1 [Example 290, N-((1R,2S)-2-{[(3aR,4R,9bR)-4-(Methoxymethyl)-2,3,3a,4,5,9b-hexahydro-1H-pyrrolo[3,2-c]quinolin-1-yl]carbonyl}cyclohexyl)-4-(1,3-oxazol-5-yl)benzamide]
< 1 | COC[C@@H]1Nc2ccccc2[C@H]2[C@@H]1CCN2C(=O)[C@H]1CCCC[C@H]1NC(=O)c1ccc(N2CCSCC2)cc1 [Example 291, N-((1R,2S)-2-{[(3aR,4R,9bR)-4-(Methoxymethyl)-2,3,3a,4,5,9b-hexahydro-1H-pyrrolo[3,2-c]quinolin-1-yl]carbonyl}cyclohexyl)-4-thiomorpholin-4-ylbenzamide]
< 1 | O=C(Nc1ccccc1)N[C@@H]1CCCC[C@@H]1C(=O)N1CC[C@@H]2[C@H](c3ncc[nH]3)Nc3ccccc3[C@@H]21 [Example 293, N-((1R,25)-2-{[(3aR,4R,9bR)-4-(1H-Imidazol-2-yl)-2,3,3a,4,5,9b-hexahydro-1H-pyrrolo[3,2-c]quinolin-1-yl]carbonyl}cyclohexyl)-N′-phenylurea]

Second part, the compound before the results:

Compound | IC50 [nM]
COC[C@@H]1Nc2ccccc2[C@H]2[C@@H]1CCN2C(=O)[C@H]1CCCC[C@H]1NC(=O)c1ccc(OC)c(C#N)c1 [Example 275, 3-Cyano-4-methoxy-N-((1R,2S)-2-{[(3aR,4R,9bR)-4-(methoxymethyl)-2,3,3a,4,5,9b-hexahydro-1H-pyrrolo[3,2-c]quinolin-1-yl]carbonyl}cyclohexyl)benzamide] | < 1
COC[C@@H]1Nc2ccccc2[C@H]2[C@@H]1CCN2C(=O)[C@H]1CCCC[C@H]1NC(=O)c1ccc2c(c1)nc(C)n2C [Example 276, N-((1R,2S)-2-{[(3aR,4R,9bR)-4-(Methoxymethyl)-2,3,3a,4,5,9b-hexahydro-1H-pyrrolo[3,2-c]quinolin-1-yl]carbonyl}cyclohexyl)-1,2-dimethyl-1H-benzimidazole-5-carboxamide] | < 10
COC[C@@H]1Nc2ccccc2[C@H]2[C@@H]1CCN2C(=O)[C@H]1CCCC[C@H]1NC(=O)Nc1ccc(-n2ccnc2)cc1 [Example 277, N-[4-(1H-Imidazol-1-yl)phenyl]-N′-((1R,2S)-2-{[(3aR,4R,9bR)-4-(methoxymethyl)-2,3,3a,4,5,9b-hexahydro-1H-pyrrolo[3,2-c]quinolin-1-yl]carbonyl}cyclohexyl)urea] | < 1
COC[C@@H]1Nc2ccccc2[C@H]2[C@@H]1CCN2C(=O)[C@H]1CCCC[C@H]1NC(=O)c1ccc(S(C)(=O)=O)cc1 [Example 278, N-((1R,2S)-2-{[(3aR,4R,9bR)-4-(Methoxymethyl)-2,3,3a,4,5,9b-hexahydro-1H-pyrrolo[3,2-c]quinolin-1-yl]carbonyl}cyclohexyl)-4-(methylsulfonyl)benzamide] | < 10
COC[C@@H]1Nc2ccccc2[C@H]2[C@@H]1CCN2C(=O)[C@H]1CCCC[C@H]1NC(=O)c1ccc2[nH]c(C)nc2c1 [Example 279, N-((1R,2S)-2-{[(3aR,4R,9bR)-4-(Methoxymethyl)-2,3,3a,4,5,9b-hexahydro-1H-pyrrolo[3,2-c]quinolin-1-yl]carbonyl}cyclohexyl)-2-methyl-1H-benzimidazole-5-carboxamide] | < 1
COC[C@@H]1Nc2ccccc2[C@H]2[C@@H]1CCN2C(=O)[C@H]1CCCC[C@H]1NC(=O)c1c[nH]c(-c2ccccc2)n1 [Example 280, N-((1R,2S)-2-{[(3aR,4R,9bR)-4-(Methoxymethyl)-2,3,3a,4,5,9b-hexahydro-1H-pyrrolo[3,2-c]quinolin-1-yl]carbonyl}cyclohexyl)-2-phenyl-1H-imidazole-4-carboxamide] | < 1
COC[C@@H]1Nc2ccccc2[C@H]2[C@@H]1CCN2C(=O)[C@H]1CCCC[C@H]1NC(=O)c1ccc(-c2ncc[nH]2)cc1 [Example 281, 4-(1H-imidazol-2-yl)-N-((1R,2S)-2-{[(3aR,4R,9bR)-4-(methoxymethyl)-2,3,3a,4,5,9b-hexahydro-1H-pyrrolo[3,2-c]quinolin-1-yl]carbonyl}cyclohexyl)benzamide] | < 1
COC[C@@H]1Nc2ccccc2[C@H]2[C@@H]1CCN2C(=O)[C@H]1CCCC[C@H]1NC(=O)c1ccc2[nH]c(C(F)(F)F)nc2c1 [Example 282, N-((1R,2S)-2-{[(3aR,4R,9bR)-4-(Methoxymethyl)-2,3,3a,4,5,9b-hexahydro-1H-pyrrolo[3,2-c]quinolin-1-yl]carbonyl}cyclohexyl)-2-(trifluoromethyl)-1H-benzimidazole-5-carboxamide] | < 10
COC[C@@H]1Nc2ccccc2[C@H]2[C@@H]1CCN2C(=O)[C@H]1CCCC[C@H]1NC(=O)Nc1ccc(C#N)c(C)c1 [Example 283, N-(4-Cyano-3-methylphenyl)-N′-((1R,2S)-2-{[(3aR,4R,9bR)-4-(methoxymethyl)-2,3,3a,4,5,9b-hexahydro-1H-pyrrolo[3,2-c]quinolin-1-yl]carbonyl}cyclohexyl)urea] | < 1
COC[C@@H]1Nc2ccccc2[C@H]2[C@@H]1CCN2C(=O)[C@H]1CCCC[C@H]1NC(=O)Nc1ccc(-n2cccn2)cc1 [Example 284, N-((1R,2S)-2-{[(3aR,4R,9bR)-4-(methoxymethyl)-2,3,3a,4,5,9b-hexahydro-1H-pyrrolo[3,2-c]quinolin-1-yl]carbonyl}cyclohexyl)-N′-[4-(1H-pyrazol-1-yl)phenyl]urea] | < 1
